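Assay format: 96-well plates, 48-hour exposure. Here, GI50 denotes the concentration required for 50% inhibition of growth.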 Activity calls are given as the source filed them. No stated cut-off is given here; in the data, active = GI50 up to about 1.1 µM and inactive = higher.
Tests used:
Assay in all cases: DTP human tumour cell line panel, 48 h
786-0 = system: 786-0
A549 = system: A549
BT-549 = system: BT-549
CAKI-1 = system: CAKI-1
CCRF-CEM = system: CCRF-CEM
COLO 205 = system: COLO 205
DU-145 = system: DU-145
EKVX = system: EKVX
HCC 2998 = system: HCC 2998
HCT-116 = system: HCT-116
HCT-15 = system: HCT-15
HL-60 = system: HL-60
HOP-62 = system: HOP-62
HT-29 = system: HT-29
Hs-578T = system: Hs-578T
IGROV-1 = system: IGROV-1
K562 = system: K562
KM12 = system: KM12
LOX IMVI = system: LOX IMVI
M14 = system: M14
MCF7 = system: MCF7
MDA-MB-231 = system: MDA-MB-231
MDA-MB-435 = system: MDA-MB-435
MDA-N = system: MDA-N
MOLT-4 = system: MOLT-4
Malme-3M = system: Malme-3M
NCI-H226 = system: NCI-H226
NCI-H23 = system: NCI-H23
NCI-H522 = system: NCI-H522
OVCAR-8 = system: OVCAR-8
PC-3 = system: PC-3
RPMI-8226 = system: RPMI-8226
SF-268 = system: SF-268
SF-295 = system: SF-295
SF-539 = system: SF-539
SK-MEL-28 = system: SK-MEL-28
SK-MEL-5 = system: SK-MEL-5
SK-OV-3 = system: SK-OV-3
SN12C = system: SN12C
SNB-19 = system: SNB-19
SNB-75 = system: SNB-75
SW-620 = system: SW-620
T47D = system: T47D
TK-10 = system: TK-10
UACC-257 = system: UACC-257
UACC-62 = system: UACC-62
UO-31 = system: UO-31
A498 = system: A498
ACHN = system: ACHN
NCI-H460 = system: NCI-H460
NCI/ADR-RES = system: NCI/ADR-RES
OVCAR-3 = system: OVCAR-3
OVCAR-5 = system: OVCAR-5
RXF 393 = system: RXF 393
SK-MEL-2 = system: SK-MEL-2
SR = system: SR
U-251 = system: U-251
HOP-92 = system: HOP-92
OVCAR-4 = system: OVCAR-4

O=C1C(=Cc2ccc(O)cc2)N=C(c2ccccc2)N1n1c(-c2ccccc2)nc2ccccc2c1=O
GI50 (786-0): > 100 µM (inactive) | GI50 (A549): > 100 µM (inactive) | GI50 (BT-549): > 100 µM (inactive) | GI50 (CAKI-1): > 100 µM (inactive) | GI50 (CCRF-CEM): 32 µM (inactive) | GI50 (COLO 205): > 100 µM (inactive) | GI50 (DU-145): > 100 µM (inactive) | GI50 (EKVX): > 100 µM (inactive) | GI50 (HCC 2998): > 100 µM (inactive) | GI50 (HCT-116): > 100 µM (inactive) | GI50 (HCT-15): 38.9 µM | GI50 (HL-60): 40.6 µM (inactive) | GI50 (HOP-62): > 100 µM (inactive) | GI50 (HT-29): 72.8 µM (inactive) | GI50 (Hs-578T): 81.5 µM (inactive) | GI50 (IGROV-1): > 100 µM (inactive) | GI50 (K562): > 10 µM (inactive) | GI50 (KM12): > 100 µM (inactive) | GI50 (LOX IMVI): > 100 µM (inactive) | GI50 (M14): > 100 µM (inactive) | GI50 (MCF7): 30.9 µM (inactive) | GI50 (MDA-MB-231): 76.9 µM (inactive) | GI50 (MDA-MB-435): > 100 µM (inactive) | GI50 (MDA-N): > 100 µM (inactive) | GI50 (MOLT-4): 78.7 µM (inactive) | GI50 (Malme-3M): > 100 µM (inactive) | GI50 (NCI-H226): > 100 µM (inactive) | GI50 (NCI-H23): 71.6 µM (inactive) | GI50 (NCI-H522): 50 µM (inactive) | GI50 (OVCAR-8): > 100 µM (inactive) | GI50 (PC-3): 34.8 µM (inactive) | GI50 (RPMI-8226): 46.1 µM (inactive) | GI50 (SF-268): > 100 µM (inactive) | GI50 (SF-295): > 100 µM (inactive) | GI50 (SF-539): > 100 µM (inactive) | GI50 (SK-MEL-28): 88.9 µM (inactive) | GI50 (SK-MEL-5): > 100 µM (inactive) | GI50 (SK-OV-3): > 100 µM (inactive) | GI50 (SN12C): > 10 µM (inactive) | GI50 (SNB-19): > 100 µM (inactive) | GI50 (SNB-75): > 100 µM (inactive) | GI50 (SW-620): > 100 µM (inactive) | GI50 (T47D): 49.8 µM (inactive) | GI50 (TK-10): > 100 µM (inactive) | GI50 (UACC-257): > 100 µM (inactive) | GI50 (UACC-62): 97.1 µM (inactive) | GI50 (UO-31): > 100 µM (inactive)

C/C=C1\C(=O)O[C@H]2C/C(C)=C/CC/C(C)=C/CC[C@@]3(C)O[C@@H]3C[C@@H]12
GI50 (786-0): > 100 µM (inactive) | GI50 (A498): > 100 µM (inactive) | GI50 (A549): > 100 µM (inactive) | GI50 (ACHN): > 100 µM (inactive) | GI50 (BT-549): 69.5 µM (inactive) | GI50 (CAKI-1): > 100 µM (inactive) | GI50 (CCRF-CEM): 35 µM (inactive) | GI50 (COLO 205): > 100 µM (inactive) | GI50 (DU-145): > 100 µM (inactive) | GI50 (EKVX): > 100 µM (inactive) | GI50 (HCC 2998): > 100 µM (inactive) | GI50 (HCT-116): > 100 µM (inactive) | GI50 (HCT-15): 54.3 µM | GI50 (HL-60): 52 µM (inactive) | GI50 (HOP-62): > 100 µM (inactive) | GI50 (HT-29): > 100 µM (inactive) | GI50 (IGROV-1): 61.1 µM (inactive) | GI50 (K562): > 100 µM (inactive) | GI50 (KM12): > 100 µM (inactive) | GI50 (M14): > 100 µM (inactive) | GI50 (MCF7): > 100 µM (inactive) | GI50 (MDA-MB-231): > 100 µM (inactive) | GI50 (MDA-MB-435): > 100 µM (inactive) | GI50 (MDA-N): > 100 µM (inactive) | GI50 (MOLT-4): 95.1 µM (inactive) | GI50 (Malme-3M): > 100 µM (inactive) | GI50 (NCI-H460): 46.1 µM (inactive) | GI50 (NCI/ADR-RES): > 100 µM (inactive) | GI50 (OVCAR-3): > 100 µM (inactive) | GI50 (OVCAR-5): > 100 µM (inactive) | GI50 (OVCAR-8): > 100 µM (inactive) | GI50 (PC-3): > 100 µM (inactive) | GI50 (RPMI-8226): 74.1 µM (inactive) | GI50 (RXF 393): > 100 µM (inactive) | GI50 (SF-268): > 100 µM (inactive) | GI50 (SF-295): > 100 µM (inactive) | GI50 (SF-539): > 100 µM (inactive) | GI50 (SK-MEL-28): > 100 µM (inactive) | GI50 (SK-MEL-2): > 100 µM (inactive) | GI50 (SK-MEL-5): > 100 µM (inactive) | GI50 (SK-OV-3): > 100 µM (inactive) | GI50 (SN12C): > 100 µM (inactive) | GI50 (SNB-19): 36.8 µM (inactive) | GI50 (SNB-75): > 100 µM (inactive) | GI50 (SR): 37.8 µM (inactive) | GI50 (SW-620): > 100 µM (inactive) | GI50 (T47D): > 100 µM (inactive) | GI50 (TK-10): > 100 µM (inactive) | GI50 (U-251): 85.5 µM (inactive) | GI50 (UACC-257): > 100 µM (inactive) | GI50 (UACC-62): > 100 µM (inactive) | GI50 (UO-31): > 100 µM (inactive)

CC12CCC(C(=O)OC1=O)C(C)(C)O2 (configuration not stated)
GI50 (A549): > 100 µM (inactive) | GI50 (ACHN): > 100 µM (inactive) | GI50 (BT-549): > 100 µM (inactive) | GI50 (CAKI-1): > 100 µM (inactive) | GI50 (CCRF-CEM): > 100 µM (inactive) | GI50 (COLO 205): > 100 µM (inactive) | GI50 (DU-145): > 100 µM (inactive) | GI50 (EKVX): > 100 µM (inactive) | GI50 (HCC 2998): > 100 µM (inactive) | GI50 (HCT-116): > 100 µM (inactive) | GI50 (HOP-62): > 100 µM (inactive) | GI50 (HOP-92): > 100 µM (inactive) | GI50 (HT-29): > 100 µM (inactive) | GI50 (Hs-578T): > 100 µM (inactive) | GI50 (IGROV-1): > 100 µM (inactive) | GI50 (K562): > 100 µM (inactive) | GI50 (KM12): > 100 µM (inactive) | GI50 (LOX IMVI): > 100 µM (inactive) | GI50 (M14): > 100 µM (inactive) | GI50 (MCF7): > 100 µM (inactive) | GI50 (MDA-MB-435): > 100 µM (inactive) | GI50 (MDA-N): > 100 µM (inactive) | GI50 (MOLT-4): > 100 µM (inactive) | GI50 (Malme-3M): > 100 µM (inactive) | GI50 (NCI-H226): > 100 µM (inactive) | GI50 (NCI-H23): > 100 µM (inactive) | GI50 (NCI-H460): > 100 µM (inactive) | GI50 (NCI-H522): > 100 µM (inactive) | GI50 (NCI/ADR-RES): > 100 µM (inactive) | GI50 (OVCAR-3): > 100 µM (inactive) | GI50 (OVCAR-4): > 100 µM (inactive) | GI50 (OVCAR-5): > 100 µM (inactive) | GI50 (OVCAR-8): > 100 µM (inactive) | GI50 (PC-3): > 100 µM (inactive) | GI50 (RPMI-8226): > 100 µM (inactive) | GI50 (RXF 393): > 100 µM (inactive) | GI50 (SF-268): > 100 µM (inactive) | GI50 (SF-295): > 100 µM (inactive) | GI50 (SF-539): > 100 µM (inactive) | GI50 (SK-MEL-28): > 100 µM (inactive) | GI50 (SK-MEL-2): > 100 µM (inactive) | GI50 (SK-MEL-5): > 100 µM (inactive) | GI50 (SK-OV-3): > 100 µM (inactive) | GI50 (SN12C): > 100 µM (inactive) | GI50 (SNB-19): > 100 µM (inactive) | GI50 (SNB-75): > 100 µM (inactive) | GI50 (SW-620): > 100 µM (inactive) | GI50 (T47D): > 100 µM (inactive) | GI50 (TK-10): > 100 µM (inactive) | GI50 (U-251): > 100 µM (inactive) | GI50 (UACC-257): > 100 µM (inactive) | GI50 (UACC-62): > 100 µM (inactive) | GI50 (UO-31): > 100 µM (inactive)

— ChEMBL document CHEMBL1201862, “PubChem BioAssay data set” (2004)
